Results from patent US12329766B2, “Compounds, methods, and treatments for abnormal signaling pathways for prenatal and postnatal development” (priority 2006, dated 2025).

Tests used:
[1] = system: phosphatidyl inositol (PI3K) signaling pathway; experiment: Example 6: cultured curly tail mice embryos, PNP closure; conditions: embryos cultured from E9.5 to E10.5, in vitro
Method: To determine whether the downstream targets of the phosphatidyl inositol (PI3K) signaling pathway could be effected by an inhibitor, we can use […] to inhibit the effect of inositol on neural tube closure. The curly tail mice embryos are cultured from E9.5 to E10.5, and the length of unclosed neural folds at the pnp are measured to indicate predisposition to spina bifida. Embryos which are exposed to the kinase inhibitor alone have enlarged PNP's, reflecting the in vivo development of spinal NTD's by 50%-60% of curly tail embryos.

[2] = Example 4: men on androgen ablative therapy, male breast cancer; type: in vivo; conditions: prior to and throughout androgen ablative therapy; compared to controls
Text: Men preparing to initiate androgen ablative therapy are initiated on a course of D-chiroinositol prior to and throughout the treatment with the androgen ablative therapeutic.

curly tail model = conditions: cited from earlier work
[3] = Example 7: fetal alcohol syndrome related defects in offspring of alcohol treated rats; type: in vivo; conditions: given before and during the alcohol treatment; versus inositol free alcohol treated group
Method: Female rats are administered alcohol for 2 weeks and then mated. The alcohol administration continues through out pregnancy and the rate of fetal alcohol syndrome related defects in the offspring are noted. A second set of rats from the same strain are mated without having the alcohol treatment as a control and the rate of defects of the same type as noted in the first arm are noted. […] A third arm of the study includes rats that are administered D-chiroinositol or a phosphorylate thereof before and during the alcohol treatment and are otherwise treated in the same manner as in the alcohol treatment above.

[4] = Example 2: females at risk of fetal malformations, treatment from before conception through first trimester; type: in vivo; conditions: once daily from before conception through the end of the first trimester; relative to the untreated controls
Method: Females determined to be at risk of fetal malformations and who are seeking a further pregnancy are split into no treatment, folate treatment, D-chiroinositol treatment, and Folate+D-chiroinositol treatment arms. The respective regimens are administered once daily from before conception through the end of the first trimester. Relative to the untreated controls, the frequency of fetal malformations is reduced in each of the non-control arms.

PKB = conditions: increasing extracellular Ins(1,3,4,5,6)P5; cited from earlier work
PDK1 [5] = molecular target: T1, PDK1 (Homo sapiens, UniProt O15530); conditions: phosphorylation of the PDK tide peptide substrate by PDK1; cited from earlier work
T1 sequence (O15530 1-556): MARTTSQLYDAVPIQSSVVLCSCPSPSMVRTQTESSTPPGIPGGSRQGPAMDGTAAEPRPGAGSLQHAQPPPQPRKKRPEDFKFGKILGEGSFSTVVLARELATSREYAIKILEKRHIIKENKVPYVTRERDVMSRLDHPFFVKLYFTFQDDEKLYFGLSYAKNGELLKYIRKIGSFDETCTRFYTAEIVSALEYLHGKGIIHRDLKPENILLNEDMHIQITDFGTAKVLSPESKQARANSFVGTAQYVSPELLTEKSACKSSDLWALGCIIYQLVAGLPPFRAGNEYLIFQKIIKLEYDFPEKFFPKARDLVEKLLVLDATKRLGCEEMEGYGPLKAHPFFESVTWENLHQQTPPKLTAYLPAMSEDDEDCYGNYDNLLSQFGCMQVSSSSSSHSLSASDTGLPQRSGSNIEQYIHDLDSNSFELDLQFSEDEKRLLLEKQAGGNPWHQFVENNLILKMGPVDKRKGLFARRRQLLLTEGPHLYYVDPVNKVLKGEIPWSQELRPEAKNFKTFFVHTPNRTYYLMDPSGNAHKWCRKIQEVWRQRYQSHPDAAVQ

PDK1 [6] = molecular target: T1, PDK1; conditions: cited from earlier work
hedgehog signaling = conditions: cultured neonatal mouse ovaries; cited from earlier work
Shh signaling [7] = conditions: explants from mice at 13.5 days of gestation, six to eight days in culture; cited from earlier work
amyloid β deposits = conditions: in vivo; cited from earlier work
[8] = taken before conception and during early pregnancy; cited from earlier work
[9] = China 1993 to 1995; 3.1 per 10,000 births for those not taking folic acid; cited from earlier work
Shh signaling [10] = experiment: Example 5: curly tail mice embryos, spinal and genitourinary defects; type: in vivo; conditions: D-chiroinositol vs. myoinositol
Method: These embryos are exposed to the present invention compound D-chiroinositol vs. myoinositol and internal examination is conducted.

MDA-MB 231 cells = conditions: cited from earlier work
[11] = system: Colo357, BxPc3, or PancTuI tumors; parameters: reduction of metastasis / reduction of the number of liver metastases / reduction of volumes of recurrent tumors: concentration or dose not given beside the values; conditions: cited from earlier work; for reduction of the number of liver metastases / reduction of volumes of recurrent tumors: mouse, in vivo
PDAC cells = conditions: in vitro; cited from earlier work
[12] = severe combined immunodeficient mice, orthotopic tumors

O[C@H]1[C@H](O)[C@H](O)[C@@H](O)[C@@H](O)[C@H]1O [D-chiroinositol, D-chiro-inositol]
PNP closure [1]: normalizes PNP closure | frequency of male breast cancer [2]: substantially reduced | frequency of spina bifida (curly tail model; curly tail model, compound alone): reduced frequency of spina bifida in this model to a greater extent than myo-inositol alone | rate of fetal alcohol syndrome defects [3]: substantially less | frequency of fetal malformations [4]: reduced

O=P(O)(O)OC1[C@@H](OP(=O)(O)O)[C@H](OP(=O)(O)O)C(O)[C@H](OP(=O)(O)O)[C@H]1OP(=O)(O)O (stereo partly shown) [Ins(1,3,4,5,6)P5]
PKB activation in cells (PKB): lowered PKB activation | direct inhibition of PDK1 catalytic activity (PDK1 [5]): did not directly inhibit

O=P(O)(O)O[C@@H]1[C@H](O)[C@H](O)[C@@H](OP(=O)(O)O)[C@H](OP(=O)(O)O)[C@H]1O [Ins(1,4,5)P3]
binding to PDK1 (PDK1 [6]): could not be detected

O=P(O)(O)O[C@H]1[C@H](OP(=O)(O)O)[C@@H](OP(=O)(O)O)[C@H](OP(=O)(O)O)[C@@H](OP(=O)(O)O)[C@H]1OP(=O)(O)O [InsP6]
direct inhibition of PDK1 catalytic activity (PDK1 [5]): did not directly inhibit

CC1=C2C[C@H]3[C@@H](CC=C4C[C@@H](O)CC[C@@]43C)[C@@H]2CC[C@]12O[C@@H]1C[C@H](C)CN[C@H]1[C@H]2C [cyclopamine]
induced expression of hedgehog target genes Ptch1 and Gli1 (hedgehog signaling): inhibits this induced expression of target genes | morphogenesis of vibrissa follicles (Shh signaling [7]): striking inhibition of morphogenesis

OC1C(O)C(O)C(O)C(O)C1O (stereo not drawn) [epi-inositol]
efficacy in Alzheimer's disease (amyloid β deposits, cognitive ability) (amyloid β deposits): only worked at all when given before disease onset

Nc1nc(O)c2nc(CNc3ccc(C(=O)N[C@@H](CCC(=O)O)C(=O)O)cc3)cnc2n1 [folic acid]
reduction of the risk of the fetus developing a neural tube defect [8]: about 70% | rate of imperforate anus [9]: 1.6 per 10,000 births | frequency of fetal malformations [4]: reduced

O[C@H]1[C@H](O)[C@@H](O)[C@H](O)[C@@H](O)[C@H]1O [myo-inositol]
severity of spinal and genitourinary defects in embryos (Shh signaling [10]): severe compared to those embryos treated with D-chiroinositol | incidence of neural tube defects (curly tail model; mouse models that are folate resistant): reduced the incidence of neural tube defects | efficacy in Alzheimer's disease (amyloid β deposits, cognitive ability) (amyloid β deposits): not to be effective

O=P(O)(O)O[C@H]1[C@H](OP(=O)(O)O)[C@@H](OP(=O)(O)O)[C@H](OP(=O)(O)O)[C@@H](OP(=O)(O)O)[C@H]1OP(=O)(O)O [myoinositol hexaphosphate]
secretion of MMP-9 (MDA-MB 231 cells): significantly inhibits

O[C@H]1[C@H](O)[C@@H](O)[C@H](O)[C@@H](O)[C@@H]1O [scyllo-inositol]
efficacy in Alzheimer's disease (amyloid β deposits, cognitive ability) (amyloid β deposits): prevent the accumulation of amyloid β deposits and improved cognitive ability

etanercept
reduction of the number of liver metastases [11]: 42% | reduction of volumes of recurrent tumors [11]: 51% | effect on proliferation and invasiveness of PDAC cells (PDAC cells): only marginally affected

infliximab: human-specific anti-TNF antibody
reduction of the number of liver metastases [11]: 69% | reduction of volumes of recurrent tumors [11]: 73% | reduction of metastasis [11, 12]: ~50% | reduction of tumor growth [11, 12]: about 30% | effect on proliferation and invasiveness of PDAC cells (PDAC cells): only marginally affected
